Laboratory results: ChEMBL document CHEMBL4804286, “3-amino-4-(4-(4 (dimethylcarbamoyl) phenyl)-1,4-diazepan-1-yl) thieno [2,3-b] pyridine-2-carboxamide for use in cancer therapy and formulations comprising the same” (2020)
Where “and” joins values, the source holds several entries; their conditions need not be identical. Equal entries are not always repeated. Calls of active or inactive are those of the source. The calls are words filed in the database; no cut-off is given here.

Key:
[1] = test system: Tyrosine-protein kinase ABL1 (Homo sapiens), P00519 [F317I]; assay: Inhibition of phosphorylated human ABL1 F317I mutant assessed as percent of control at 2000 nM by KINOMEscan assay relative to control; parameters: scale not given: the % may be the effect or the level left
[2] = target: Activin receptor type-1 (Homo sapiens) (UniProt Q04771); assay: Inhibition of human ACVR1 assessed as percent of control at 2000 nM by KINOMEscan assay relative to control; parameters: scale not given: the % may be the effect or the level left
[3] = test system: ALK tyrosine kinase receptor (Homo sapiens), Q9UM73 [C1156Y]; assay: Inhibition of human ALK C1156Y mutant assessed as percent of control at 2000 nM by KINOMEscan assay relative to control; parameters: scale not given: the % may be the effect or the level left
[4] = target: NUAK family SNF1-like kinase 1 (Homo sapiens) (UniProt O60285); assay: Inhibition of human ARK5 assessed as percent of control at 2000 nM by KINOMEscan assay relative to control; parameters: scale not given: the % may be the effect or the level left
[5] = target: Mitogen-activated protein kinase kinase kinase 6 (Homo sapiens) (UniProt O95382); assay: Inhibition of human ASK2 assessed as percent of control at 2000 nM by KINOMEscan assay relative to control; parameters: scale not given: the % may be the effect or the level left
[6] = target: Cyclin-dependent kinase 7 (Homo sapiens) (UniProt P50613); assay: Inhibition of human CDK7 assessed as percent of control at 2000 nM by KINOMEscan assay relative to control; parameters: scale not given: the % may be the effect or the level left
[7] = target: Macrophage colony-stimulating factor 1 receptor (Homo sapiens) (UniProt P07333); assay: Inhibition of human autoinhibited CSF1R assessed as percent of control at 2000 nM by KINOMEscan assay relative to control; parameters: scale not given: the % may be the effect or the level left
[8] = target: Myotonin-protein kinase (Homo sapiens) (UniProt Q09013); assay: Inhibition of human DMPK assessed as percent of control at 2000 nM by KINOMEscan assay relative to control; parameters: scale not given: the % may be the effect or the level left
[9] = target: Serine/threonine-protein kinase MRCK gamma (Homo sapiens) (UniProt Q6DT37); assay: Inhibition of human DMPK2 assessed as percent of control at 2000 nM by KINOMEscan assay relative to control; parameters: scale not given: the % may be the effect or the level left
[10] = target: Serine/threonine-protein kinase 17B (Homo sapiens) (UniProt O94768); assay: Inhibition of human DRAK2 assessed as percent of control at 2000 nM by KINOMEscan assay relative to control; parameters: scale not given: the % may be the effect or the level left
[11] = target: Ephrin type-A receptor 3 (Homo sapiens) (UniProt P29320); assay: Inhibition of human EPHA3 assessed as percent of control at 2000 nM by KINOMEscan assay relative to control; parameters: scale not given: the % may be the effect or the level left
[12] = target: Receptor tyrosine-protein kinase erbB-4 (Homo sapiens) (UniProt Q15303); assay: Inhibition of human ERBB4 assessed as percent of control at 2000 nM by KINOMEscan assay relative to control; parameters: scale not given: the % may be the effect or the level left
[13] = target: Hormonally up-regulated neu tumor-associated kinase (Homo sapiens) (UniProt P57058); assay: Inhibition of human HUNK assessed as percent of control at 2000 nM by KINOMEscan assay relative to control; parameters: scale not given: the % may be the effect or the level left
[14] = target: Interleukin-1 receptor-associated kinase 3 (Homo sapiens) (UniProt Q9Y616); assay: Inhibition of human IRAK3 assessed as percent of control at 2000 nM by KINOMEscan assay relative to control; parameters: scale not given: the % may be the effect or the level left
[15] = target: Serine/threonine-protein kinase LATS1 (Homo sapiens) (UniProt O95835); assay: Inhibition of human LATS1 assessed as percent of control at 2000 nM by KINOMEscan assay relative to control; parameters: scale not given: the % may be the effect or the level left
[16] = target: Mitogen-activated protein kinase kinase kinase 1 (Homo sapiens) (UniProt Q13233); assay: Inhibition of human MAP3K1 assessed as percent of control at 2000 nM by KINOMEscan assay relative to control; parameters: scale not given: the % may be the effect or the level left
[17] = target: Microtubule-associated serine/threonine-protein kinase 1 (Homo sapiens) (UniProt Q9Y2H9); assay: Inhibition of human MAST1 assessed as percent of control at 2000 nM by KINOMEscan assay relative to control; parameters: scale not given: the % may be the effect or the level left
[18] = target: Dual specificity mitogen-activated protein kinase kinase 2 (Homo sapiens) (UniProt P36507); assay: Inhibition of human MEK2 assessed as percent of control at 2000 nM by KINOMEscan assay relative to control; parameters: scale not given: the % may be the effect or the level left
[19] = target: Dual specificity mitogen-activated protein kinase kinase 5 (Homo sapiens) (UniProt Q13163); assay: Inhibition of human MEK5 assessed as percent of control at 2000 nM by KINOMEscan assay relative to control; parameters: scale not given: the % may be the effect or the level left
[20] = target: Serine/threonine-protein kinase mTOR (Homo sapiens) (UniProt P42345); assay: Inhibition of human MTOR assessed as percent of control at 2000 nM by KINOMEscan assay relative to control; parameters: scale not given: the % may be the effect or the level left
[21] = target: Myosin light chain kinase family member 4 (Homo sapiens) (UniProt Q86YV6); assay: Inhibition of human MYLK4 assessed as percent of control at 2000 nM by KINOMEscan assay relative to control; parameters: scale not given: the % may be the effect or the level left
[22] = target: Mitogen-activated protein kinase 14 (Homo sapiens) (UniProt Q16539); assay: Inhibition of human p38-alpha assessed as percent of control at 2000 nM by KINOMEscan assay relative to control; parameters: scale not given: the % may be the effect or the level left
[23] = target: Mitogen-activated protein kinase 11 (Homo sapiens) (UniProt Q15759); assay: Inhibition of human p38-beta assessed as percent of control at 2000 nM by KINOMEscan assay relative to control; parameters: scale not given: the % may be the effect or the level left
[24] = test system: Phosphatidylinositol 4,5-bisphosphate 3-kinase catalytic subunit alpha isoform (Homo sapiens), P42336 [M1043I]; assay: Inhibition of human PIK3CA M1043I mutant assessed as percent of control at 2000 nM by KINOMEscan assay relative to control; parameters: scale not given: the % may be the effect or the level left
[25] = target: 1-phosphatidylinositol 3-phosphate 5-kinase (Homo sapiens) (UniProt Q9Y2I7); assay: Inhibition of human PIKFYVE assessed as percent of control at 2000 nM by KINOMEscan assay relative to control; parameters: scale not given: the % may be the effect or the level left
[26] = target: Serine/threonine-protein kinase PRP4 homolog (Homo sapiens) (UniProt Q13523); assay: Inhibition of human PRP4 assessed as percent of control at 2000 nM by KINOMEscan assay relative to control; parameters: scale not given: the % may be the effect or the level left
[27] = target: Receptor-interacting serine/threonine-protein kinase 4 (Homo sapiens) (UniProt P57078); assay: Inhibition of human RIPK4 assessed as percent of control at 2000 nM by KINOMEscan assay relative to control; parameters: scale not given: the % may be the effect or the level left
[28] = target: NUAK family SNF1-like kinase 2 (Homo sapiens) (UniProt Q9H093); assay: Inhibition of human SNARK assessed as percent of control at 2000 nM by KINOMEscan assay relative to control; parameters: scale not given: the % may be the effect or the level left
[29] = test system: CWR22R; assay: Antitumor activity against human 22Rv1 cells expressing AR-V7 xenografted in male nude mouse assessed as suppression of tumor growth at 50 mg/kg, administered twice a day for 40 days; assay type: functional, organism-based
[30] = test system: Myc-CaP; assay: Antitumor activity against murine castration-resistant Myc-CaP cells xenografted in male FVB mouse assessed as suppression of tumor volume; assay type: functional
[31] = target: Serine/threonine-protein kinase RIO2 (Homo sapiens) (UniProt Q9BVS4); details: INHIBITOR, dose 2000.0 nM
Description: Inhibition of human RIOK2 at 2000 nM by KINOMEscan assay

Sequence of Myosin light chain kinase family member 4 (Homo sapiens) (Q86YV6 whole entry): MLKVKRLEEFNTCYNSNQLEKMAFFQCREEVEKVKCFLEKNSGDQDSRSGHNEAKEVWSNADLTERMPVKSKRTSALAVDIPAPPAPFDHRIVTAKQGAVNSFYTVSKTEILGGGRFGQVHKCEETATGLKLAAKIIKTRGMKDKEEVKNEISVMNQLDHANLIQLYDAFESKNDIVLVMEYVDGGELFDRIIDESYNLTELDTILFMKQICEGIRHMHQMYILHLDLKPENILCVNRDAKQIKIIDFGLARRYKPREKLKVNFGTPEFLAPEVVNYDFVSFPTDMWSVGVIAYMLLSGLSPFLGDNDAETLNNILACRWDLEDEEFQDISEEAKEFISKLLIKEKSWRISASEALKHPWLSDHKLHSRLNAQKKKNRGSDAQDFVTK
Sequence of Serine/threonine-protein kinase PRP4 homolog (Homo sapiens) (Q13523 whole entry): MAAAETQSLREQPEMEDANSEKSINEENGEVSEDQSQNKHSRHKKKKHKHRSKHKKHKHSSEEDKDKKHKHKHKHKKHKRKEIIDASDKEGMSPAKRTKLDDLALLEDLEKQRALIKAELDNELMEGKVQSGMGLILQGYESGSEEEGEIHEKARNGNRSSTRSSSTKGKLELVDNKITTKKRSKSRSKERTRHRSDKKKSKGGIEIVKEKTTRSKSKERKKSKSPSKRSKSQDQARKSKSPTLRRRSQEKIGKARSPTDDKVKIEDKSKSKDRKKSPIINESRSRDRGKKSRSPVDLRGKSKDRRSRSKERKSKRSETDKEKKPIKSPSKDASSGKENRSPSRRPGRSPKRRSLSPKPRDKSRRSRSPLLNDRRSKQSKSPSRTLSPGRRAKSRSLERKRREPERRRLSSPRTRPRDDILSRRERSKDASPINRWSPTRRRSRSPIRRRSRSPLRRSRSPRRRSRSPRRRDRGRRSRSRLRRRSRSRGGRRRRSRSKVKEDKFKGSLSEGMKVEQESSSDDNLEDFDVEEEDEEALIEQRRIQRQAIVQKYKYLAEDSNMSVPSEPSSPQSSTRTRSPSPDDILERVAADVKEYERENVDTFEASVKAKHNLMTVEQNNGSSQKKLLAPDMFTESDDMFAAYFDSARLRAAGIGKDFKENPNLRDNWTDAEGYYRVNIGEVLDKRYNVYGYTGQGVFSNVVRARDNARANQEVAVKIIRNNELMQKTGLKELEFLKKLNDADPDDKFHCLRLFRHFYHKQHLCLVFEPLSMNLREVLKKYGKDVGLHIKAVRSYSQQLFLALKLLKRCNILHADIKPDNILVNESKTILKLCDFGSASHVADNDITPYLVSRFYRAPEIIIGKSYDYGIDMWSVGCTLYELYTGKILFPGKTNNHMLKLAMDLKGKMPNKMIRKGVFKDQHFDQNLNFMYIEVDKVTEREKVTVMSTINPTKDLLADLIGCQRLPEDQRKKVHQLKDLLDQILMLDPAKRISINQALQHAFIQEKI
Sequence of Mitogen-activated protein kinase 14 (Homo sapiens) (Q16539 whole entry): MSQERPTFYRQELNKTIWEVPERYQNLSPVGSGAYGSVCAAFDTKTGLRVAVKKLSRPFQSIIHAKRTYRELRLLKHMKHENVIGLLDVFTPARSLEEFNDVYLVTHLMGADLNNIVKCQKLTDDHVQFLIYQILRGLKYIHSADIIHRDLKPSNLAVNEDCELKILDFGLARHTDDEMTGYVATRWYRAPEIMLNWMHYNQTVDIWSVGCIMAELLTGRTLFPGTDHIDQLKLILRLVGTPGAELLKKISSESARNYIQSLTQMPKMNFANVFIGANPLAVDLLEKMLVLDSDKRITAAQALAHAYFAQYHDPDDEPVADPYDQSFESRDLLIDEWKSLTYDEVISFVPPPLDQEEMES
Sequence of Macrophage colony-stimulating factor 1 receptor (Homo sapiens) (P07333 whole entry): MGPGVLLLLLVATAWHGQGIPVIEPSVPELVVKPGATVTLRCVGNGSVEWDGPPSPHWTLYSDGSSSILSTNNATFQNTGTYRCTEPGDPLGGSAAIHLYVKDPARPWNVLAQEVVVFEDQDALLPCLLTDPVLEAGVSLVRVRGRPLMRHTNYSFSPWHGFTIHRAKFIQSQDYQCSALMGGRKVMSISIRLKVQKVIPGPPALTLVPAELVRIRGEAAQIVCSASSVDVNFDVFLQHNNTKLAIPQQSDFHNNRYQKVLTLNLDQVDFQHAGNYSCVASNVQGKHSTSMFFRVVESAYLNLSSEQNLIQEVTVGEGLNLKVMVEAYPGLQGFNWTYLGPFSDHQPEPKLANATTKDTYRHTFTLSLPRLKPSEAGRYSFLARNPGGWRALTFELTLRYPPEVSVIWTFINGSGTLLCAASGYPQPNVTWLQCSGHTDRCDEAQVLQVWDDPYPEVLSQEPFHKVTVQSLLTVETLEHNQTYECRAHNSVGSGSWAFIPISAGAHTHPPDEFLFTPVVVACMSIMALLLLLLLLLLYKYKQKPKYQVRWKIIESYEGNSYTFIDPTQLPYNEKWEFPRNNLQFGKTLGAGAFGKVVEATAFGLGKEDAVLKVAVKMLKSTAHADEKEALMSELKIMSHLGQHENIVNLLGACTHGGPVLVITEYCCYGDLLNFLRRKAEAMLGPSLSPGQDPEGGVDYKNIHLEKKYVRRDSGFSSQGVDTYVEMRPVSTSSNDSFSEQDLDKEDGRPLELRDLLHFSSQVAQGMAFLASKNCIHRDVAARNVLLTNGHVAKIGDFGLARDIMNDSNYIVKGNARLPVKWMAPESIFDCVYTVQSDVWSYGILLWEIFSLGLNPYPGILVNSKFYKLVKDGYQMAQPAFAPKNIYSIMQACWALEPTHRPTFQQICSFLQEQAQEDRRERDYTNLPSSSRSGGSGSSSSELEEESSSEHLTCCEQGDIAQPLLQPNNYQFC
Sequence of NUAK family SNF1-like kinase 2 (Homo sapiens) (Q9H093 whole entry): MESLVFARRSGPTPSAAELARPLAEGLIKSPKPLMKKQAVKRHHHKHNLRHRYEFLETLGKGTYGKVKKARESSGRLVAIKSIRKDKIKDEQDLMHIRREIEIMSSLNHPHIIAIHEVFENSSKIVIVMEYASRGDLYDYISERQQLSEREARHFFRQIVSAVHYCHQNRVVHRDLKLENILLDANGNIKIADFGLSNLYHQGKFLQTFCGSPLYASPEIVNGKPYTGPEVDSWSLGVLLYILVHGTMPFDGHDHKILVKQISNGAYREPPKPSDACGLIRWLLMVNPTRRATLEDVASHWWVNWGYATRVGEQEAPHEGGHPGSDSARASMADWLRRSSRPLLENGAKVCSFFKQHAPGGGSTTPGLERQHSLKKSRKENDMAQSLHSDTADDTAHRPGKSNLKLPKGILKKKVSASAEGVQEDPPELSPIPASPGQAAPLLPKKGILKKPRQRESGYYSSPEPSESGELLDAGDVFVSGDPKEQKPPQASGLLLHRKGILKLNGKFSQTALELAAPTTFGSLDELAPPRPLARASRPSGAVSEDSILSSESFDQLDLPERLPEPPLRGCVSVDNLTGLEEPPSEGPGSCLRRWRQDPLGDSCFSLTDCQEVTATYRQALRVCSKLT
Sequence of Cyclin-dependent kinase 7 (Homo sapiens) (P50613 whole entry): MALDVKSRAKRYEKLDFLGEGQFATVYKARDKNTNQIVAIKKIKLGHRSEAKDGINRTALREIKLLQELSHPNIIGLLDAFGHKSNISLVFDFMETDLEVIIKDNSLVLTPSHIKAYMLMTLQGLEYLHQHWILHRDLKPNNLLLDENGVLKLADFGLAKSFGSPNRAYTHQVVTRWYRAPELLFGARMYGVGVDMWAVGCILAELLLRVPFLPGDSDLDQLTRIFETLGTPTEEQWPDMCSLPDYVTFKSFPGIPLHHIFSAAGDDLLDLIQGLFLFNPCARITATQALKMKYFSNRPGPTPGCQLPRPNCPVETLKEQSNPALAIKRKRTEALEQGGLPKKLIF
Sequence of Interleukin-1 receptor-associated kinase 3 (Homo sapiens) (Q9Y616 whole entry): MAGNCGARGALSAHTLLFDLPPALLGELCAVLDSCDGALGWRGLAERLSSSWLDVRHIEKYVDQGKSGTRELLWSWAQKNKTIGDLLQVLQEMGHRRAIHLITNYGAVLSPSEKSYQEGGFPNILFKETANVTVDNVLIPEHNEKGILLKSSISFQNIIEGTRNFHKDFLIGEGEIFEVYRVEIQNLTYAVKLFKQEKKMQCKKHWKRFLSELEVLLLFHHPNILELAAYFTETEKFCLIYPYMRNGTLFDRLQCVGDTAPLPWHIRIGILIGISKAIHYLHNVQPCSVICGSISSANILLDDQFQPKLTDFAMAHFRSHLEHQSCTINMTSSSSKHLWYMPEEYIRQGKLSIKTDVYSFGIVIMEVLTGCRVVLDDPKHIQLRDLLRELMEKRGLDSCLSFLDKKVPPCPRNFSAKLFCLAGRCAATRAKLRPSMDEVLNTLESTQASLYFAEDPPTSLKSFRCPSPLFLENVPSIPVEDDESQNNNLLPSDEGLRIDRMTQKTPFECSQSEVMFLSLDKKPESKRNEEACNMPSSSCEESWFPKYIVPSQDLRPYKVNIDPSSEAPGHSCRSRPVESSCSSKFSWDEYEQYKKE
Sequence of Myotonin-protein kinase (Homo sapiens) (Q09013 whole entry): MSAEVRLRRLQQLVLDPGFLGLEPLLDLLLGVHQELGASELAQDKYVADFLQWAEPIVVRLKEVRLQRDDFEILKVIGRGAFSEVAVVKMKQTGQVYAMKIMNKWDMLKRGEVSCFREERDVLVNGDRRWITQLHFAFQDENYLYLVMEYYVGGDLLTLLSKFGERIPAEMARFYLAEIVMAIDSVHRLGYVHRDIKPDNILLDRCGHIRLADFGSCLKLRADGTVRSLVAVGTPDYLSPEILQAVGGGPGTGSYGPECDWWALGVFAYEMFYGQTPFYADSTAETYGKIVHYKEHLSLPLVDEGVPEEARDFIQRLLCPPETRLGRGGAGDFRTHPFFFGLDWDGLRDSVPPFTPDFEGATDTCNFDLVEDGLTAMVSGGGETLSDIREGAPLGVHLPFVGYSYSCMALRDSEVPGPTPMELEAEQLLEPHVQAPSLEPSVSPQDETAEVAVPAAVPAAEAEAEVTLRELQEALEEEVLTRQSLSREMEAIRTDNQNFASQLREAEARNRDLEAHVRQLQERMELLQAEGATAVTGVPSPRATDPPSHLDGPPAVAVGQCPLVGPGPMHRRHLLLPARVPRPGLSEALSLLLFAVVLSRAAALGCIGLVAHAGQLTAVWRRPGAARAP

Compound: CN(C)C(=O)c1ccc(N2CCCN(c3ccnc4sc(C(N)=O)c(N)c34)CC2)cc1
- Activity [1]: 88% and 84%
- Activity [2]: 100%
- Activity [3]: 100% and 78%
- Activity [4]: 57% and 77%
- Activity [5]: 90% and 88%
- Activity [6]: 100% and 78%
- Activity [7]: 88% and 83%
- Activity [8]: 97%
- Activity [9]: 93% and 94%
- Activity [10]: 100% and 87%
- Activity [11]: 100% and 87%
- Activity [12]: 85% and 100%
- Activity [13]: 99% and 100%
- Activity [14]: 93% and 89%
- Activity [15]: 89% and 97%
- Activity [16]: 84% and 90%
- Activity [17]: 92%
- Activity [18]: 88% and 82%
- Activity [19]: 86% and 65%
- Activity [20]: 88% and 97%
- Activity [21]: 100% and 94%
- Activity [22]: 93% and 99%
- Activity [23]: 100% and 97%
- Activity [24]: 96% and 95%
- Activity [25]: 91% and 98%
- Activity [26]: 100% and 88%
- Activity [27]: 89% and 68%
- Activity [28]: 100% and 78%
- Activity [29]: Active
- Activity [30]: Active
- inhibition [31]: > 65%
